Test results: article PMC11620503 (Antimicrobial Agents and Chemotherapy, 2024)

Columns and labels:
Experiment in all cases: Ki app determination (Waley's method)
OXA-66 = OXA-66 (Acinetobacter baumannii, UniProt Q58XD2)
NDM-7 = NDM-7 (Klebsiella pneumoniae, UniProt C7C422, D130N/M154L)
CTX-M-14 = CTX-M-14 (Escherichia coli, UniProt Q9L5C7)
CTX-M-15 = CTX-M-15 (Escherichia coli, UniProt Q9EXV5)
VIM-2 = VIM-2 (Escherichia coli, UniProt Q5U7L7)
VIM-1 = VIM-1 (Pseudomonas aeruginosa, UniProt A0A0F7KYQ8)
OXA-24 = OXA-24 (Acinetobacter baumannii, UniProt Q8RLA6)
NDM-1 = NDM-1 (Klebsiella pneumoniae, UniProt C7C422)
NDM-5 = NDM-5 (Klebsiella pneumoniae, UniProt C7C422, M154L/V88L)
SHV-5 = SHV-5 (Klebsiella pneumoniae, UniProt P0A3M1)
CTX-M-27 = CTX-M-27 (Escherichia coli, UniProt Q840M4)
IMP-1 = IMP-1 (Serratia marcescens, UniProt P52699)
OXA-65 = OXA-65 (Acinetobacter baumannii, UniProt Q58XD3)
NDM-4 = NDM-4 (Klebsiella pneumoniae, UniProt C7C422, M154L)
IMP-6 = IMP-6 (Serratia marcescens, UniProt P52699, S214G)
NDM-6 = NDM-6 (Klebsiella pneumoniae, UniProt C7C422, A233V)
OXA-23 = OXA-23 (Acinetobacter baumannii, UniProt Q9L4P2)
OXA-72 = OXA-72 (Acinetobacter baumannii, UniProt Q5XQU0)
SHV-12 = SHV-12 (Klebsiella pneumoniae, UniProt P0A3M1, L31Q)
SHV-2 = SHV-2 (Klebsiella pneumoniae, UniProt P0A9Z8)
OXA-48 = OXA-48 (Klebsiella pneumoniae, UniProt Q6XEC0)
KPC-38 = KPC-38 (Klebsiella pneumoniae, UniProt Q9F663); details: read-out: Ki app, means from three independent studies
KPC-3 = KPC-3 (Klebsiella pneumoniae, UniProt Q9F663, H272Y)
KPC-2 = KPC-2 (Klebsiella pneumoniae, UniProt Q9F663)

Structure (SMILES) | Ki (OXA-66) [nM] | Ki (NDM-7) [nM] | Ki (CTX-M-14) [nM] | Ki (CTX-M-15) [nM] | Ki (VIM-2) [nM] | Ki (VIM-1) [nM] | Ki (OXA-24) [nM] | Ki (NDM-1) [nM] | Ki (NDM-5) [nM] | Ki (SHV-5) [nM] | Ki (CTX-M-27) [nM] | Ki (IMP-1) [nM] | Ki (OXA-65) [nM] | Ki (NDM-4) [nM] | Ki (IMP-6) [nM] | Ki (NDM-6) [nM] | Ki (OXA-23) [nM] | Ki (OXA-72) [nM] | Ki (SHV-12) [nM] | Ki (SHV-2) [nM] | also measured
O=C(NC1CCNCC1)[C@@H]1CC[C@@H]2CN1C(=O)N2OS(=O)(=O)O [Relebactam, relebactam] | > 100000 | > 100000 | 5.96 ± 3.22 | 0.841 ± 0.235 | > 100000 | > 100000 | > 100000 | > 100000 | > 100000 | 6.26 ± 1.53 | 3.62 ± 1.2 | > 100000 | > 100000 | > 100000 | > 100000 | > 100000 | 5640 | ≥ 37400 | 19.3 ± 6.32 | 0.373 ± 0.0856 | –
C[C@]1(Cn2ccnn2)[C@H](C(=O)O)N2C(=O)C[C@H]2S1(=O)=O [Tazobactam, tazobactam] | > 100000 | > 100000 | – | 0.0387 ± 0.00434 | > 100000 | > 100000 | 100 ± 45.6 | > 100000 | > 100000 | 1.84 ± 0.243 | 0.0403 ± 0.0162 | > 100000 | > 100000 | > 100000 | > 100000 | > 100000 | 14 ± 5.31 | 78.9 ± 8.96 | 1.68 ± 0.266 | 0.187 ± 0.104 | Ki (OXA-48): 5.32 ± 0.329 nM; Ki (KPC-38): 112 ± 14.5 nM; Ki (KPC-3): 270 ± 80.8 nM; Ki (KPC-2): 159 ± 48.2 nM
O=C(O)C[C@@H]1CC[C@H](NC(=O)Cc2cccs2)B(O)O1 [Vaborbactam, vaborbactam] | > 100000 | > 100000 | 392 ± 20.3 | 78.1 ± 6.63 | > 100000 | > 100000 | > 100000 | > 100000 | > 100000 | 1420 | 351 ± 28.7 | > 100000 | > 100000 | > 100000 | > 100000 | > 100000 | > 100000 | > 100000 | 755 ± 103 | > 100000 | Ki (OXA-48): > 100000 nM; Ki (KPC-38): 48.3 ± 13.2 nM; Ki (KPC-3): 88.3 ± 30.3 nM; Ki (KPC-2): 63.7 ± 24.9 nM
